Assay results published in patent US11266647B2, “Method for increasing cell proliferation in pancreatic beta cells, treatment method, and composition” (ICAHN SCHOOL OF MEDICINE AT MOUNT SINAI, priority 2016, dated 2022).
Entries after “also recorded” stand apart in the source; their conditions may differ.

Legend:
SMAD signaling = experiment: Immunoblots of SMADs in whole human islets; type: cell-based
Source text: (§1) The immunoblots are representative of separate experiments in human islets from three different donors. […] Ad.shLacZ indicates a sh-adenovirus for the Ad.shDYRK1A.
Primary antisera employed were: SMAD2/3 (Cell Signaling, 8685p), p-SMAD3 (Abcam, ab52903), SMAD4 (Sc-7966, Santa Cruz), SMAD1/5/9 (ab66737, Abcam), p15INK4 (Abcam, ab53034), p16INK4a (Sc-468, Santa Cruz), p21CIP (556430, BD), p57CIP2 (2557s, Cell Signaling) and GAPDH (Sc-25778, Santa Cruz).
To ascertain whether the harmine-TGFβSF inhibitor combination affected SMAD signaling, human islets were incubated with harmine alone or in combination with two TGFβSF inhibitors: LY or ALK5 (FIG. 5A).

mouse beta cells = experiment: Mouse pancreas study: beta cell Ki-67/insulin after 7 days i.p. treatment; type: in vivo, C57BL/6N mice; details: C57BL6N mice, i.p. daily 7 days, harmine 10 mg/kg, GW788388 30 mg/kg
Procedure: (§2) On day seven, treatment was begun exactly as in FIG. 9A for seven days.
Male C57BL/6N mice (12 week-old) received vehicle (saline), 10 mg kg^−1 harmine HCl, 30 mg kg^−1 GW788388 or the combination of harmine and GW788388 by intraperitoneal injection daily for 7 days. Mice were sacrificed on day 7, pancreata harvested, fixed in 10% neutral buffered formalin, paraffin embedded, and sectioned. […] A minimum of 2,000 beta cells per pancreas were counted. Investigators were blinded as to group assignments.
(§3) To evaluate the effects of harmine and TGFβ inhibitor in vivo, C57BL6N mice were administered vehicle ([…]), harmine, GW788388, or the combination of harmine plus GW788388 intraperitoneally for seven days, sacrificed, and evaluated for insulin and Ki67. […] Next, human cadaveric islets were transplanted into NOD-SCID mice.

human beta cells [1] = experiment: Human islet transplant under renal capsule of NOD-SCID mice: beta cell Ki-67/insulin; type: in vivo, human islets in NOD-SCID mice; details: i.p. daily 7 days, harmine 10 mg/kg, GW788388 30 mg/kg
Procedure: as §2
Mice were allowed to recover for 7 days and then treated with vehicle (saline), 10 mg kg-1 harmine HCl, 30 mg kg-1 GW788388 or the combination of harmine and GW788388 by intraperitoneal injection daily for 7 days. Mice were sacrificed on day 7, renal grafts harvested, fixed in 10% neutral buffered formalin, paraffin embedded and sectioned.
as §3

human beta cells [2] = experiment: Ki67 immunolabeling in human islets with adenoviral silencing or overexpression plus drug; type: cell-based
Procedure: as §1
Unless otherwise described, all transductions were performed using 150 moi for one hour, and studies performed 72 hours later. […] Adenoviruses encoding human SMAD6 or SMAD7 were prepared as described using cDNAs encoding SMAD6 and SMAD7 obtained from Harvard PlasmID Database.
(§4) Primary antisera were: BrdU (ab6326, Abcam), Ki67 (RM-9106-sl, Thermo Scientific, and MIB1, DAKO), p-Histone-3 (06-570, Millipore), insulin (A0564, DAKO), p-yH2AX (MA1-2022, Thermo Scientific), NKX6.1 (F55A10-c, University of Iowa), PDX1 (07-696, Millipore), MAFA (Ab26405, Abcam), Glucagon (2760s, Cell Signaling), Somatostatin (Sc-20999, Santa Cruz), Pancreatic Polypeptide (A0619, DAKO), and CK19 (Ab52625, Abcam). Species-specific mouse Alexa Fluor 488 (A-11029, Life Technologies), rat Alexa Fluor 594 (A-11007, Life Technologies), rabbit Alexa Fluor 488 (A11037, Life Technologies) or guinea pig Alexa Fluor 488 (A-11073, Life Technologies) secondary antisera were selected as appropriate.

human beta cells [3] = experiment: Ki67 labeling of insulin-positive cells in dispersed human cadaveric islets; type: cell-based; details: for Ki67 labeling with other DYRK1A inhibitors in combination therapy: DYRK1A inhibitor other than harmine, with TGFβSF inhibitor
Source text: as §4

TGFβ superfamily members = experiment: RNAseq of whole human islets; type: cell-based
beta cells of T2D islets = experiment: Ki67 immunolabeling in islets from donors with Type 2 diabetes; details: harmine alone
Source text: Islets from normal and Type 2 diabetes adult cadaveric pancreas donors were obtained from the NIH/NIDDK-supported Integrated Islet Distribution Program and from the Alberta Diabetes Institute. Depending on the experiments performed, islets were used either as intact islets, or were first dispersed with Accutase (Sigma, St. Louis, Mo.) onto coverslips.

[4] = test system: cell cycle activators and cell cycle inhibitors; experiment: qPCR of cell cycle activators and inhibitors in whole human islets
Procedure: Gene expression in dispersed islets was analyzed by real-time PCR performed on an ABI 7500 System.
Reasoning that harmine and harmine-TGFβ inhibitors (and DYRK1A and SMADs, respectively) must ultimately orchestrate cell cycle entry via cell cycle activators and cell cycle inhibitors, gene expression of cell cycle activators and inhibitors was examined in whole islets treated with vehicle, harmine, TGFβ inhibitor or the harmine-TGFβ inhibitor combination (FIGS. 6A-6B).

Structure (SMILES): c1ccc(-c2n[nH]cc2-c2ccnc3ccccc23)nc1 [LY364947, 4-[3-(2-Pyridinyl)-1H-pyrazol-4-yl]-quinoline]
- p-SMAD3 (SMAD3 phosphorylation), immunoblot (SMAD signaling): further reduced

Structure (SMILES): O=C(NC1CCOCC1)c1ccc(-c2cc(-c3c[nH]nc3-c3ccccn3)ccn2)cc1 [GW788388, 4-(4-(3-(pyridin-2-yl)-1H-pyrazol-4-yl)pyridin-2-yl)-N-(tetrahydro-2H-pyran-4-yl)benzamide]
- mouse beta cell proliferation in vivo (Ki67/insulin) (mouse beta cells): induced beta cell proliferation
- human beta cell proliferation in vivo in transplanted islets (human beta cells [1]): had no effect
- proliferation with adenoviral silencing of DYRK1A (human beta cells [2]; Ad.shDYRK1A plus TGFβ inhibitor): markedly accentuates proliferation

Structure (SMILES): Cc1cccc(-c2n[nH]cc2-c2ccc3ncccc3n2)n1 [ALK5 inhibitor, 2-(3-(6-Methylpyridin-2-yl)-1H-pyrazol-4-yl)-1,5 napththyridine]
- p-SMAD3 (SMAD3 phosphorylation), immunoblot (SMAD signaling): further reduced

Structure (SMILES): O=C1NC(Nc2ccccc2)=N/C1=C\c1ccc2c(c1)OCO2 [leucettine-41]
- activation of human beta cell proliferation (human beta cells [3]; DYRK1A inhibitor): able to activate human beta cell proliferation
- Ki67 labeling with other DYRK1A inhibitors in combination therapy (human beta cells [3]): beneficial effects

Structure (SMILES): COc1ccc2c(c1)[nH]c1c(C)nccc12 [harmine]
- p-SMAD3 (SMAD3 phosphorylation), immunoblot (SMAD signaling): reductions; also recorded: reduced
- total SMAD1/5/9, immunoblot (SMAD signaling): reductions; also recorded: reduced
- mouse beta cell proliferation in vivo (Ki67/insulin) (mouse beta cells): induced beta cell proliferation
- human beta cell proliferation in vivo in transplanted islets (human beta cells [1]): increased this rate
- BMP1 (RNAseq) (TGFβ superfamily members; Donor 1): 4 FPKM
- BMP5 (RNAseq) (TGFβ superfamily members; Donor 1): 26 FPKM
- GDF11 (RNAseq) (TGFβ superfamily members; Donor 1): 3 FPKM
- INHA (RNAseq) (TGFβ superfamily members; Donor 1): 1 FPKM
- TGFB2 (RNAseq) (TGFβ superfamily members; Donor 1): 3 FPKM
- TGFBR1 (RNAseq) (TGFβ superfamily members; Donor 1): 9 FPKM
- TGFBR2 (RNAseq) (TGFβ superfamily members; Donor 1): 3 FPKM
- TGFB1 (RNAseq) (TGFβ superfamily members; Donor 1, row r7): 24 FPKM
- TGFB1 (RNAseq), second line so named (TGFβ superfamily members; Donor 1, row r11): 62 FPKM
- BMP1 (RNAseq) (TGFβ superfamily members; Donor 2): 3 FPKM
- BMP5 (RNAseq) (TGFβ superfamily members; Donor 2): 20 FPKM
- GDF11 (RNAseq) (TGFβ superfamily members; Donor 2): 3 FPKM
- INHA (RNAseq) (TGFβ superfamily members; Donor 2): 1 FPKM
- TGFB2 (RNAseq) (TGFβ superfamily members; Donor 2): 2 FPKM
- TGFBR1 (RNAseq) (TGFβ superfamily members; Donor 2): 8 FPKM
- TGFBR2 (RNAseq) (TGFβ superfamily members; Donor 2): 3 FPKM
- TGFB1 (RNAseq) (TGFβ superfamily members; Donor 2, row r7): 19 FPKM
- TGFB1 (RNAseq), second line so named (TGFβ superfamily members; Donor 2, row r11): 22 FPKM
- changes in TGFβSF members on harmine treatment of human islets (TGFβ superfamily members; RNAseq): notable changes
- harmine-induced proliferation with overexpression of SMADs 6 and 7 (human beta cells [2]; adenoviral overexpression, 100 moi): markedly enhanced
- harmine-induced proliferation with silencing of SMADs 2, 3, and 4 (human beta cells [2]; adenoviral silencing, 150 moi each): further enhanced
- proliferation with silencing of CDKN1A and/or CDKN1C (human beta cells [2]; harmine 10 μM): robust human beta cell proliferation
- Ki67 immunolabeling in T2D islets (beta cells of T2D islets): increased Ki67 immunolabeling to the same degree observed in non-diabetic islet donors
- expression of cell cycle activators (e.g., CDK1, CCNA1, CCNE2, CDC25A) ([4]; harmine 10 μM, LY364947 5 μM, qPCR): induced expression
- cell cycle inhibitor expression other than CDKN1C ([4]; harmine alone): modest and limited effects
- decline of CDKN1C (p57KIP2) expression ([4]; harmine alone, qPCR): ~50%

Structure (SMILES): CCN1/C(=C/C(C)=O)Sc2ccc(O)cc21 [INDY]
- Ki67 labeling with other DYRK1A inhibitors in combination therapy (human beta cells [3]): beneficial effects
